Target: angiotensin-converting enzyme (ACE) (UniProt P12822)
Assay: Test of effect of inhibiting angiotensin-converting enzyme (Hippuryl-His-Leu substrate, hippuric acid measured by HPLC)
Format: biochemical
Description: [Test Example 1] Test of Effect of Inhibiting Angiotensin-Converting Enzyme Conducted on Compound (I)
The effect of inhibiting an angiotensin-converting enzyme was tested on the compound (I) (sample 1) as explained below.
A sample solution (sample 1), obtained by suitably dissolving in and diluting with distilled water, and distilled water respectively in an amount of 50 μL were dispensed into test tubes (10 mL). A substrate solution was dispensed respectively in an amount of 250 μL and mixed. The test tubes were preheated in a thermostatic water-tank at 37° C. for 5 minutes. The preheated test tubes were added with an ACE solution in an amount of 100 μL, agitated immediately and brought to react in the thermostatic water-tank at 37° C. for 45 minutes. After the reaction finished, 3% metaphosphate solution in an amount of 3.6 mL was added and agitated to end reaction. The inactivated solution was subjected to HPLC analysis and isolated hippuric acid was measured. Based on a hippuric acid peak area and solid amount (concentration and weighed amount) from the HPLC, an ACE inhibition rate (%) was obtained.
A substrate solution was prepared to obtain a boric acid buffering solution (pH 8.3) with 8 mM substrate (Hippuryl-His-Leu produced by PEPTIDE INSTITUTE, INC.) and 640 mM sodium chloride. An ACE solution was prepared to obtain a boric acid buffering solution with 30 mU/mL ACE (produced by Sigma-Aldrich Co. LLC).
<Liquid Chromatography Condition >
Column: Wakosil-II 5C18 HG (4.5mm I.D.×150mm produced by Wako Pure Chemical Industries, Ltd.)
• Column Temperature: 40° C. • Mobile Phase: 20 mM KH2PO4·H3PO4 (pH 3.0): Methanol (57:43, v/v) • Flow Rate: 1.0 mL/min. • Detection Wavelength: 228 nm • Feed Amount: 20 μL

Chain of angiotensin-converting enzyme (ACE) (P12822 whole entry): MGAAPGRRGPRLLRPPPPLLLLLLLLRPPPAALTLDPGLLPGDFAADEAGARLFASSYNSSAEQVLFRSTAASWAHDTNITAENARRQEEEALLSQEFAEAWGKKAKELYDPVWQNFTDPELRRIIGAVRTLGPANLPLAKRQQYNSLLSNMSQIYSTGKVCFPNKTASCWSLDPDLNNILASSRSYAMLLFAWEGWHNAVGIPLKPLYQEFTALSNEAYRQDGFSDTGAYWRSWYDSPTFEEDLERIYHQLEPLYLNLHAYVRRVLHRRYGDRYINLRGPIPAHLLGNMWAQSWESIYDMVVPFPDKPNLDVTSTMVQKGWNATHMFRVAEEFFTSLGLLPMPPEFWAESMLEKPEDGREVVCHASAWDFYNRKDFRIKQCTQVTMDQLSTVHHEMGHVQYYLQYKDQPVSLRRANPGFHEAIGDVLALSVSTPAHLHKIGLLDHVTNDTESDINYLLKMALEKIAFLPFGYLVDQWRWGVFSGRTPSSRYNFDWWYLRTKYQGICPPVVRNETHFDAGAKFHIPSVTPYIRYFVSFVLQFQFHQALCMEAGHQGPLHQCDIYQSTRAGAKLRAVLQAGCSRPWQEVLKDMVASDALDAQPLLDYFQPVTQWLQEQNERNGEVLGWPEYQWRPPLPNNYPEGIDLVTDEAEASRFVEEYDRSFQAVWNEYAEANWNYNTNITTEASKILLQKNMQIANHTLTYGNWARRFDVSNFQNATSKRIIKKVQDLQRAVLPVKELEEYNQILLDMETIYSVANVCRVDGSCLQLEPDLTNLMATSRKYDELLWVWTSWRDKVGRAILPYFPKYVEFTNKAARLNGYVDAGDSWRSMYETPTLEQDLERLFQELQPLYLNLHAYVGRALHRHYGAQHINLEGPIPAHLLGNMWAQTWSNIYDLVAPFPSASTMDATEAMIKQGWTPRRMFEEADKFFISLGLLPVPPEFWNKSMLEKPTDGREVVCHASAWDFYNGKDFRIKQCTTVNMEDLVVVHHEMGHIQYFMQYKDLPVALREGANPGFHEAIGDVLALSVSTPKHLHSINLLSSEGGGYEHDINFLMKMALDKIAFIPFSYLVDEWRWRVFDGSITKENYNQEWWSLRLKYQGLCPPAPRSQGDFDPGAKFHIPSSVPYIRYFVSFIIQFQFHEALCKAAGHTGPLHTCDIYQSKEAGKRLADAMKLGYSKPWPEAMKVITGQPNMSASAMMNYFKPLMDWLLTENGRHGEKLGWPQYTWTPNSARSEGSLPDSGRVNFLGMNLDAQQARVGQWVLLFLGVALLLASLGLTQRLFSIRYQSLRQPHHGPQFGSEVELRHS

SMILES: COc1cc(CCC(=O)O)ccc1O [compound (I), 3-(4-hydroxy-3-methoxyphenyl)propionic acid]
- IC50 (37° C., 45 minutes reaction, read-out: IC50 (concentration of the sample in the reaction solution exhibiting an ACE inhibition rate of 50%) (converted)): 10.9 mM
- ACE Inhibition Rate (sample concentration 943.25 μg/mL): 21.6%
- ACE Inhibition Rate (sample concentration 1886.50 μg/mL): 41.1%
- ACE Inhibition Rate (sample concentration 3773.00 μg/mL): 73.2%
